The test system of series [1] is NCI-H1373. Nature of the series: 3D cell proliferation assay, KRAS G12C mutant cell line NCI-H1373. It is filed as cell-based. The conditions noted are these: Homo sapiens, 168 h, 7 day. How it is done: (§1) Growth inhibition assays was carried out using 10% FBS supplemented media. Cells were seeded at a desired concentration of 1000-6000 cells/well in a well plate with desired number of wells. Test compounds at a desired concentration range were added after 24 hours. Growth was assessed using the Cell Titer-Glo (CTG. Cell Signaling) for measuring reduction at 0 h (prior to the addition of the test compound) and 3 day (2D) or 7 day (3D) after the addition of test compound. Absorbance read on a BIO-RAD iMark Microplate or any equivalent microplate reader at a predetermined a wavelength for e.g. 450 nm. Data was be analysed and percent inhibition and/or IC50 for each test compound is calculated accordingly. Results: Data provide for a representative Cpd A across various cell lines including selectivity

The test system of series [2] is NCI-H1792. Nature of the series: 3D cell proliferation assay, KRAS G12C mutant cell line NCI-H1792. The conditions noted are these: Homo sapiens, 168 h, 7 day. The series is classed as cell-based. How it is done:
as §1

For series [3], the system named is NCI-H23. Nature of the series: 3D cell proliferation assay, KRAS G12C mutant cell line NCI-H23. It is filed as cell-based. The conditions noted are these: Homo sapiens, 168 h, 7 day. The procedure:
as §1

Series [4] deals with Calu-1. Nature of the series: 3D cell proliferation assay, KRAS G12C mutant cell line Calu-1. The series is classed as cell-based. The conditions noted are these: Homo sapiens, 168 h, 7 day. How it is done: as §1
Series [5] has as its system SW-837. Nature of the series: 3D cell proliferation assay, KRAS G12C mutant cell line SW-837. The conditions noted are these: Homo sapiens, SW837, 168 h, 7 day. The series is classed as cell-based. The procedure:
as §1

For series [6], the system named is SW1463. Nature of the series: 3D cell proliferation assay, KRAS G12C mutant cell line SW1463. The series is classed as cell-based. The conditions noted are these: Homo sapiens, 168 h, 7 day. The procedure: as §1
Series [7] concerns eCT26. Nature of the series: 3D cell proliferation assay, eCT26 (engineered for KRASG12C mutation). It is filed as cell-based. The conditions noted are these: 168 h, 7 day. The procedure:
as §1

In series [8] the test system is CO-04-0070. Nature of the series: 3D cell proliferation assay, CO-04-0070 patient derived cell line. The conditions noted are these: 168 h, CO-04-0070 (PDC), 7 day. The series is classed as cell-based. How it is done:
as §1

Series [9] concerns A549. Nature of the series: 2D cell proliferation assay, non-KRAS G12C mutant cell line A549. It is filed as cell-based. The procedure:
as §1

Series [10] relates to HCT116. Nature of the series: 2D cell proliferation assay, non-KRAS G12C mutant cell line HCT116. It is filed as cell-based. The procedure:
as §1

Series [11] has as its target human KRAS G12C protein (Homo sapiens, UniProt P01116, G12C). Nature of the series: HTRF-based nucleotide exchange assay detecting GTP binding to K-Ras. It is filed as biochemical. The conditions noted are these: KRAS G12C (aa 2-169), SOS1 (aa 564-1049), read-out: IC50, SOS1 mediated nucleotide exchange. The procedure: Compounds (each 10 concentrations or any other concentration of choice at 3-fold or fold of choice for serial dilutions with a starting concentration of ˜300 um or 100 μM or 50 uM) were then delivered to the reaction wells using acoustic dispenser (Echo, Labcyte) and incubated with the Kras/aGST-Tb antibody for 1-hour at room temperature. After 1-hour incubation 5 μL of SOS1/GTP solution (SOS1—(corresponding to amino acid 564-1049) and GDP-DY-647P1 prepared using reaction buffer-20 mM Hepes, pH7.4, 150 mM Nacl, 5 mM MgCl2, 1 mM DTT, 0.05% BSA, 0.0025% NP40) was added to reaction wells to initiate the exchange reaction. HTRF based SOS1 mediated exchange of GDP to GTP was measured on a microplate reader PEHRAstar (BMG Labtech) at an excitation wavelength of 337 nm and emission wavelengths of 665 and 620 nm. No-SOS1 reaction or highest control compound concentration was used as blank and % inhibition was calculated and/or IC50 was determined using Sigmoidal dose response (variable slope) equation.

Series [12] has as its system NCI-H358 Human Non-Small Cell Lung Cancer Xenograft. Nature of the series: Anti-tumor effect in female Balb/c nude mice bearing NCI-H358 xenograft. It is filed as in vivo. How it is done: NCI-H358 Xenograft was used to test representative compound of the invention where in NCI-H358 cells were inoculated in a mice model representing Lung Cancer with […] comprising of Control (Vehicle treated, GI) and two treatment cohorts/group namely Paclitaxel as standard (10 mg/kg Q3D, IV, G3) and test compound (100 mg/kg QD, Cpd A, G3) with each cohorts/group. Treatment was initiated when maximum tumor growth reached >200 mm3 and continued till the Vehicle are reached a maximum tumor volume of 2000 mm3.

Results on one compound are retold here after patent US20240300942A1, “SMALL MOLECULES FOR TREATEMENT OF CANCER” (VRise Therapeutics Inc., priority 2021, published 2024).

Structures are written as SMILES. Where only a bound is given, the exact number is not on record here.

Chain of human KRAS G12C protein (P01116 2-169 isoform P01116-2 G12C): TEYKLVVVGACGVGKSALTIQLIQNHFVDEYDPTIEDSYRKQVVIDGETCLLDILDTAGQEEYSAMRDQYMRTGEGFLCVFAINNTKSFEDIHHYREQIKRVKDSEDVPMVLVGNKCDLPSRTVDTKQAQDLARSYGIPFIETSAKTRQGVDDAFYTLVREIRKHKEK

The IC50 is the concentration at which inhibition is half-maximal. On to `C=CC(=O)N1CCN(c2nc(OC[C@@H]3CCCN3C)c(C#N)c3c2CCN(c2cccc4cccc(Cl)c24)C3)C[C@@H]1CC#N` (single isomer, unassigned) [Ex 25], for which the IC50 in [1] is 100 to 200 nM; in [2] it was 200 to 1000 nM; in series [3], 100 to 200 nM; in series [4], 100 to 200 nM; in [5] it was 100 to 200 nM; in series [6] it was less than 100 nM. Further, the IC50 in [7] is less than 100 nM; in series [8], 100 to 200 nM; in [11] it was less than 10 nM. The figures for the “Fold Selectivity over KRAS G12C Mutant Cell Line” value in series [9] and in series [10] were “ΩΩΩ (ΩΩΩ >600 fold)” and “Ω (Ω = >100 fold)”, respectively. Besides, in [12] (100 mg/kg QD vs Paclitaxel 10 mg/kg Q3DX3 Weeks, IV), the “reduction in tumour volume as compared to Paclitaxel” value was “statistically significant reduction”. Moreover, in [12] (100 mg/kg QD, NCI-H358 xenograft, n=5), the “Tumor Growth inhibition (TGI)” value is given as greater than 65%. The “reduction in tumor volume” value in [12] (100 mg/kg QD, from day 3 onwards, P<0.01) is “statistically significant”. For the same compound, in [12] (over the 21-day study period), the “effect on overall body weight” value is reported as “No significant effect”.
